Data from ChEMBL document CHEMBL1201862, “PubChem BioAssay data set” (2004).
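All cell lines were grown in 96-well plates and treated with compound for 48 hours. GI50 is the concentration that inhibits growth by half.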 Calls of active or inactive are those of the source. No stated cut-off is given here; in the data, active = GI50 up to about 1.1 µM and inactive = higher.

Experiments:
Assay in all cases: growth of human tumour cells (NCI), 48 h
786-0 = test system: 786-0
A498 = test system: A498
A549 = test system: A549
ACHN = test system: ACHN
BT-549 = test system: BT-549
CAKI-1 = test system: CAKI-1
CCRF-CEM = test system: CCRF-CEM
COLO 205 = test system: COLO 205
DU-145 = test system: DU-145
EKVX = test system: EKVX
HCC 2998 = test system: HCC 2998
HCT-116 = test system: HCT-116
HCT-15 = test system: HCT-15
HL-60 = test system: HL-60
HOP-62 = test system: HOP-62
HT-29 = test system: HT-29
Hs-578T = test system: Hs-578T
IGROV-1 = test system: IGROV-1
K562 = test system: K562
KM12 = test system: KM12
LOX IMVI = test system: LOX IMVI
M14 = test system: M14
MCF7 = test system: MCF7
MDA-MB-231 = test system: MDA-MB-231
MDA-MB-435 = test system: MDA-MB-435
MDA-N = test system: MDA-N
MOLT-4 = test system: MOLT-4
Malme-3M = test system: Malme-3M
NCI-H226 = test system: NCI-H226
NCI-H23 = test system: NCI-H23
NCI-H460 = test system: NCI-H460
NCI-H522 = test system: NCI-H522
NCI/ADR-RES = test system: NCI/ADR-RES
OVCAR-3 = test system: OVCAR-3
OVCAR-4 = test system: OVCAR-4
OVCAR-5 = test system: OVCAR-5
OVCAR-8 = test system: OVCAR-8
PC-3 = test system: PC-3
RPMI-8226 = test system: RPMI-8226
RXF 393 = test system: RXF 393
SF-268 = test system: SF-268
SF-295 = test system: SF-295
SF-539 = test system: SF-539
SK-MEL-28 = test system: SK-MEL-28
SK-MEL-2 = test system: SK-MEL-2
SK-MEL-5 = test system: SK-MEL-5
SK-OV-3 = test system: SK-OV-3
SN12C = test system: SN12C
SNB-19 = test system: SNB-19
SNB-75 = test system: SNB-75
SR = test system: SR
SW-620 = test system: SW-620
T47D = test system: T47D
U-251 = test system: U-251
UACC-257 = test system: UACC-257
UACC-62 = test system: UACC-62
UO-31 = test system: UO-31
HOP-92 = test system: HOP-92
TK-10 = test system: TK-10

## NC(=O)C(=CNC(N)=S)C(N)=O
786-0
  GI50: > 100 µM (inactive)
A498
  GI50: > 100 µM (inactive)
A549
  GI50: > 100 µM (inactive)
ACHN
  GI50: > 100 µM (inactive)
BT-549
  GI50: > 100 µM (inactive)
CAKI-1
  GI50: > 100 µM (inactive)
CCRF-CEM
  GI50: > 100 µM (inactive)
COLO 205
  GI50: > 100 µM (inactive)
DU-145
  GI50: > 100 µM (inactive)
EKVX
  GI50: > 100 µM (inactive)
HCC 2998
  GI50: > 100 µM (inactive)
HCT-116
  GI50: > 100 µM (inactive)
HCT-15
  GI50: > 100 µM
HL-60
  GI50: > 100 µM (inactive)
HOP-62
  GI50: > 100 µM (inactive)
HT-29
  GI50: > 100 µM (inactive)
Hs-578T
  GI50: > 100 µM (inactive)
IGROV-1
  GI50: > 100 µM (inactive)
K562
  GI50: > 100 µM (inactive)
KM12
  GI50: > 100 µM (inactive)
LOX IMVI
  GI50: > 100 µM (inactive)
M14
  GI50: > 100 µM (inactive)
MCF7
  GI50: > 100 µM (inactive)
MDA-MB-231
  GI50: > 100 µM (inactive)
MDA-MB-435
  GI50: > 100 µM (inactive)
MDA-N
  GI50: > 100 µM (inactive)
MOLT-4
  GI50: > 100 µM (inactive)
Malme-3M
  GI50: > 100 µM (inactive)
NCI-H226
  GI50: > 100 µM (inactive)
NCI-H23
  GI50: > 100 µM (inactive)
NCI-H460
  GI50: > 100 µM (inactive)
NCI-H522
  GI50: > 100 µM (inactive)
NCI/ADR-RES
  GI50: > 100 µM (inactive)
OVCAR-3
  GI50: > 100 µM (inactive)
OVCAR-4
  GI50: > 100 µM (inactive)
OVCAR-5
  GI50: > 100 µM (inactive)
OVCAR-8
  GI50: > 100 µM (inactive)
PC-3
  GI50: > 100 µM (inactive)
RPMI-8226
  GI50: > 100 µM (inactive)
RXF 393
  GI50: > 100 µM (inactive)
SF-268
  GI50: > 100 µM (inactive)
SF-295
  GI50: > 100 µM (inactive)
SF-539
  GI50: > 100 µM (inactive)
SK-MEL-28
  GI50: > 100 µM (inactive)
SK-MEL-2
  GI50: > 100 µM (inactive)
SK-MEL-5
  GI50: > 100 µM (inactive)
SK-OV-3
  GI50: > 100 µM (inactive)
SN12C
  GI50: > 100 µM (inactive)
SNB-19
  GI50: > 100 µM (inactive)
SNB-75
  GI50: > 100 µM (inactive)
SR
  GI50: > 100 µM (inactive)
SW-620
  GI50: > 100 µM (inactive)
T47D
  GI50: > 100 µM (inactive)
U-251
  GI50: > 100 µM (inactive)
UACC-257
  GI50: > 100 µM (inactive)
UACC-62
  GI50: > 100 µM (inactive)
UO-31
  GI50: 60 µM (inactive)

## C=C1C(=O)OC2CC3(C)CCCC(C)C3=CC12 (configuration not stated)
786-0
  GI50: 2.79 µM (inactive)
A498
  GI50: 3.72 µM (inactive)
A549
  GI50: 12.6 µM (inactive)
ACHN
  GI50: 2.61 µM (inactive)
BT-549
  GI50: 4.65 µM (inactive)
CAKI-1
  GI50: 3.09 µM (inactive)
CCRF-CEM
  GI50: 1.21 µM (inactive)
COLO 205
  GI50: 1.3 µM (inactive)
DU-145
  GI50: 3.67 µM (inactive)
EKVX
  GI50: 5.3 µM (inactive)
HCC 2998
  GI50: 3.79 µM (inactive)
HCT-116
  GI50: 3.91 µM (inactive)
HCT-15
  GI50: 2.1 µM
HL-60
  GI50: 0.469 µM (active)
HOP-92
  GI50: 2.64 µM (inactive)
HT-29
  GI50: 3.3 µM (inactive)
Hs-578T
  GI50: 2.91 µM (inactive)
IGROV-1
  GI50: 10.1 µM (inactive)
K562
  GI50: 2.35 µM (inactive)
KM12
  GI50: 12.6 µM (inactive)
LOX IMVI
  GI50: 1.57 µM (inactive)
M14
  GI50: 3.56 µM (inactive)
MCF7
  GI50: 1.78 µM (inactive)
MDA-MB-231
  GI50: 12.1 µM (inactive)
MDA-MB-435
  GI50: 2.94 µM (inactive)
MDA-N
  GI50: 3.18 µM (inactive)
MOLT-4
  GI50: 2.56 µM (inactive)
Malme-3M
  GI50: 3.9 µM (inactive)
NCI-H226
  GI50: 13.2 µM (inactive)
NCI-H23
  GI50: 6.04 µM (inactive)
NCI-H460
  GI50: 3.03 µM (inactive)
NCI-H522
  GI50: 1.51 µM (inactive)
NCI/ADR-RES
  GI50: 17.6 µM (inactive)
OVCAR-4
  GI50: 4.03 µM (inactive)
OVCAR-5
  GI50: 11.2 µM (inactive)
OVCAR-8
  GI50: 12.8 µM (inactive)
PC-3
  GI50: 14.8 µM (inactive)
SF-268
  GI50: 6.92 µM (inactive)
SF-295
  GI50: 13.1 µM (inactive)
SF-539
  GI50: 1.35 µM (inactive)
SK-MEL-28
  GI50: 2.65 µM (inactive)
SK-MEL-2
  GI50: 10.4 µM (inactive)
SK-MEL-5
  GI50: 1.55 µM (inactive)
SK-OV-3
  GI50: 20.7 µM (inactive)
SN12C
  GI50: 3.3 µM (inactive)
SNB-19
  GI50: 13.1 µM (inactive)
SNB-75
  GI50: 2.64 µM (inactive)
SR
  GI50: 2.14 µM (inactive)
SW-620
  GI50: 2.16 µM (inactive)
T47D
  GI50: 2.88 µM (inactive)
TK-10
  GI50: 2.46 µM (inactive)
U-251
  GI50: 7 µM (inactive)
UACC-257
  GI50: 5.38 µM (inactive)
UACC-62
  GI50: 4.08 µM (inactive)
UO-31
  GI50: 3.18 µM (inactive)
